EP1235797B1, “ARALKYL-1,2-DIAMINES HAVING CALCIMIMETIC ACTIVITY AND PREPARATION MODE” (CENTRE NATIONAL DE LA RECHERCHE SCIENTIFIQUE (CNRS), priority 1999, dated 2001)

Assays:
[1] = target: T1, récepteurs de la parathyroïde (Rattus norvegicus, UniProt P48442); conditions: experimental trials in the rat; cited from earlier work
T1 construct: from tissue; host or cells: rat parathyroid gland (in vivo)
T1 sequence (P48442 20-1079): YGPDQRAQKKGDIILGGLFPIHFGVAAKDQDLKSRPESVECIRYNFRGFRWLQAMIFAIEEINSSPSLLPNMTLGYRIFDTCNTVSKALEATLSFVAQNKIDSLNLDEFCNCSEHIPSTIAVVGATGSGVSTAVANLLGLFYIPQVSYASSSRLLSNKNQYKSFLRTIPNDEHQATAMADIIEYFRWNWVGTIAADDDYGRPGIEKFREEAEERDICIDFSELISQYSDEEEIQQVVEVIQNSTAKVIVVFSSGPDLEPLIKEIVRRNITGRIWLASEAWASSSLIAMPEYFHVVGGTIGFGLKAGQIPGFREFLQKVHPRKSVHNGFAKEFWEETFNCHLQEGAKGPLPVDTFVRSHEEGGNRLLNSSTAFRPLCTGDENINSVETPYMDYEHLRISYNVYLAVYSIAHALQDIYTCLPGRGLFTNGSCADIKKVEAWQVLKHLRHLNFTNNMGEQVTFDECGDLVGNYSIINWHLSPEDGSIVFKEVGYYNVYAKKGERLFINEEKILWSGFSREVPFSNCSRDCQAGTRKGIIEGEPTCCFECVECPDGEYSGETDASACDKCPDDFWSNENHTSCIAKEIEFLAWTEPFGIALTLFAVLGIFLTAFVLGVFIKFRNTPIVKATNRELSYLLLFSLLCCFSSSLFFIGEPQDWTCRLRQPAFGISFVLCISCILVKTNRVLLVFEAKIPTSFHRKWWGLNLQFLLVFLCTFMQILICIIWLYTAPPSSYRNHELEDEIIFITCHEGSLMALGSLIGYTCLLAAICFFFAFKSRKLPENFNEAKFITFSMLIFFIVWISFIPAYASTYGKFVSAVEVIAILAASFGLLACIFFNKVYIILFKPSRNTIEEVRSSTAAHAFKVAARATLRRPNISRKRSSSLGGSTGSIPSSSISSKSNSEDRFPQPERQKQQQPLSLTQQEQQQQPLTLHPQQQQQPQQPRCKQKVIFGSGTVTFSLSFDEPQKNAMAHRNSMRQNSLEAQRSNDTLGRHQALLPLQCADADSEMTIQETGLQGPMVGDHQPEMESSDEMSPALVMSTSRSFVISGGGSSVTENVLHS

[2] = target: T2, CaSR de rat (Rattus norvegicus, UniProt P48442); experiment: Accumulation of tritiated inositol phosphates ([3H]IP) in transfected CHO(CaSR) cells; type: cell-based; conditions: compound 10 µM
T2 construct: expressed in transfected cells; host or cells: CHO (Chinese hamster ovary) cells, line CHO(CaSR)
T2 sequence (P48442 20-1079): T1 sequence (P48442 20-1079)
Description: L'ADN complémentaire codant pour le CaSR de rat a été isolé à partir d'une banque ADNc de striatum de rat (Ruat et al, Proc. Natl. Acad. Sci., 1995). Ce récepteur est identique au niveau de sa séquence en acides aminés à celui exprimé dans les autres tissus. Des cellules ovariennes de hamster chinois (CHO) transfectées exprimant le CaSR de rat (CHO(CaSR)) ont été caractérisées et les signaux chimiques (seconds messagers) induits par l'activation de ce récepteur ont été analysés. Ainsi, un test biochimique permettant de mesurer l'accumulation d'inositols phosphates tritiés [^3H]IP en réponse à l'activation du récepteur a été mis au point (Ruat et al, J. Biol. Chem., 1996; Ferry et al, Biochem. Biophys. Res. Commun., 1997).
L'activité calcimimétique des composés a été estimée en mesurant l'accumulation d'inositols phosphates tritiés induite par 10 µM de chacun des composés en présence de 2 mM de Ca^2+ dans les cellules CHO(CaSR) (Ferry et al, Biochem Biophys Res Commun, 1997).
Cette activation a été comparée à celle induite par le composé NPS-R- 568, un calcimimétique de référence et utilisé à une concentration de 10 µM (Tableau 1) (Ferry et al, Biochem Biophys Res Commun, 1997; Nemeth et al, Proc Natl Acad Sci USA, 1997).
Dans le tableau 1, l'activité calcimimétique des composés PHD est comparée à celle d'un composé de référence, le NPS-R-568 utilisé à la même concentration et dans les mêmes conditions expérimentales. Cette activité est exprimée en pourcentage de l'activité de 10 mM de Ca^2+. Les moyennes ± erreurs standards de 2 à 5 manipulations indépendantes sont indiquées. Les expériences ont été réalisées en présence de 2 mM de Ca^2+.
(§1) L'accumulation d'inositols phosphates tritiés est exprimée en pourcentage du taux de base observé en présence de 2 mM Ca^2+ (100 %) dans les cellules CHO(WT*) ou CHO(CaSR).

[3] = tested on: cellules CHO(WT*); experiment: Specificity control: [3H]IP accumulation in CHO(WT*) control cells transfected with the plasmid alone, not expressing CaSR; type: cell-based, hamster chinois; conditions: compound 10 µM, basal level in presence of 2 mM Ca^2+ = 100 %
Description: Les molécules PHD, utilisées à une concentration de 10 µM ne conduisent pas ou peu à l'accumulation d'[^3H]IP dans des cellules CHO(WT*) témoins ce qui suggère leur spécificité d'action vis-à-vis du CaSR (Tableau 2). Les cellules CHO(WT*) ont été tranfectées avec le plasmide seul et n'expriment pas le CaSR.
as §1

[4] = tested on: glande parathyroïdienne; conditions: rat model of chronic renal failure (Wada et al, J. Clin. Invest., 1997); cited from earlier work
[5] = clinical trials Phase I - II, NPS Pharmaceutical (Nemeth et al, 1999); cited from earlier work
[6] = tested on: ostéitis fibrosa; conditions: rat (Wada et al, Kidney International, 1998); cited from earlier work
[7] = tested on: PTH; conditions: male patients with chronic renal failure (Antansen et al, Kidney International, 1998); cited from earlier work
[8] = tested on: PTH; conditions: oral route, postmenopausal women with primary hyperparathyroidism (Silverberg et al, 1997); cited from earlier work

Structure (SMILES) | sélectivité vis à vis des récepteurs de la parathyroïde comparativement à ceux de la glande thyroïde [1] | Accumulation d'(^3H)-IP % du taux basal. CHO (CaSR) ([2]; basal level in presence of 2 mM Ca^2+ = 100 %) | activity at 10 µM ([2]; basal level in presence of 2 mM Ca^2+ = 100 %, read-out: Accumulation d'(^3H)-IP % du taux basal. CHO (CaSR)) | Accumulation d'(^3H)-IP % de la réponse 10mM Ca^2+ ± E.S. ([2]; in presence of 2 mM Ca^2+, mean ± standard error of 2 to 5 independent experiments) | activation at 10 µM ([2]; in presence of 2 mM Ca^2+, mean ± standard error of 2 to 5 independent experiments, read-out: Accumulation d'(^3H)-IP % de la réponse 10mM Ca^2+ ± E.S.) | Accumulation d'(^3H)-IP % du taux basal. CHO (WT*) [3] | activity at 10 µM ([3]; read-out: Accumulation d'(^3H)-IP % du taux basal. CHO (WT*)) | réduire la prolifération cellulaire observée dans la glande parathyroïdienne [4] | bio-disponibilité [5] | ostéitis fibrosa [6] | concentrations de PTH [7] | concentrations de PTH et des ions Ca^2+ libres sériques [8]
COc1cccc([C@@H](C)NCCCc2ccccc2)c1 [NPS R-467] | plus sélectif | – | – | – | – | – | – | – | – | – | – | –
COc1cccc([C@@H](C)NCCCc2ccccc2Cl)c1 [NPS R-568, reference compound] | – | une forte accumulation | 454 ± 33% | 106 ± 15% | 100% | peu ou pas d'accumulation | 119 ± 9% | 20-50% | faible | réduit ou élimine | réduit | abaisser
